One series deals with T1, Thromboxane A2 receptor (Homo sapiens, UniProt P21731).
T1 sequence (P21731 whole entry): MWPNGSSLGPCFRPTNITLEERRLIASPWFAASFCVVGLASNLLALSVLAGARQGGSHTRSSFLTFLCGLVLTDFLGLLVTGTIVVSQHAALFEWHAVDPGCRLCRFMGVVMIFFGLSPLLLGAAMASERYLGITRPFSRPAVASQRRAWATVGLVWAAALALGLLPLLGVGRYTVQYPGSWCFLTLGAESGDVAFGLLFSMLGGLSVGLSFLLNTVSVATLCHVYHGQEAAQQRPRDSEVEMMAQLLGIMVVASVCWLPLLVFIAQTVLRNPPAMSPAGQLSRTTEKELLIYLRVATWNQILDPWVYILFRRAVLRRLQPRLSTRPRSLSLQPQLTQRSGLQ
The series can be described thus: In vitro thromboxane receptor antagonism was determined using a human platelet binding assay.

Another series concerns the target T2, Thromboxane-A synthase (Homo sapiens, UniProt P24557).
T2 sequence (P24557 whole entry): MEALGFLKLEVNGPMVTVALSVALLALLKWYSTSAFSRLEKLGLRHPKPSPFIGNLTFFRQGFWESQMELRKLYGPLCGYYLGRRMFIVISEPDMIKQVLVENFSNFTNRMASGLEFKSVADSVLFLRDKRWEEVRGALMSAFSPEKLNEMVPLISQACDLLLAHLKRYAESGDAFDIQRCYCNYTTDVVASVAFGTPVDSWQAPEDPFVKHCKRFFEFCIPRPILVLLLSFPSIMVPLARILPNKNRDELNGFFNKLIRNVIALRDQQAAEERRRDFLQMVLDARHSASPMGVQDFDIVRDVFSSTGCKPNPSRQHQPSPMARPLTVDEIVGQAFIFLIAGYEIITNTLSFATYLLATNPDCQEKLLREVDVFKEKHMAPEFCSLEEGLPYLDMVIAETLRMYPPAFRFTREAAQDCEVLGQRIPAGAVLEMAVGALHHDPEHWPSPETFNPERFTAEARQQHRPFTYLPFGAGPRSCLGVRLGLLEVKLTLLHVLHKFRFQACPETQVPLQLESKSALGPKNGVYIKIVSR
The series can be described thus: In vitro inhibition of thromboxane synthase (TSI) activity was determined by using human serum levels of TXB2. In kind it is cell-free.

Series [1] can be described thus: Partition coefficient (logP). The conditions noted are these: octanol/water. In kind it is physicochemical.

For orientation: Kd means the equilibrium constant for the complex coming apart. A word on the IC50: it is the midpoint of a concentration-inhibition curve. Lower therefore signals greater potency in that assay. In turn, `O=C(O)CCCC/C=C(/c1cccnc1)c1cccc(-c2nc(C(=O)NCCCCC3CCCCC3)co2)c1` displayed a Kd at Thromboxane A2 receptor of 12.3 nM. The compound further gave an IC50 against Thromboxane-A synthase of 19 nM.
Take `O=C(O)CCCC/C=C(\c1ccccc1)c1cccnc1` [(E)-ISBOGREL]: at Thromboxane A2 receptor, the Kd stood at 8200 nM.
By logP is commonly meant a log measure of how a compound divides between an organic and an aqueous phase. High values mean a more lipophilic compound, low ones a more hydrophilic compound. Take `CCCCCNC(=O)c1coc(-c2ccc(/C(=C\CCCCC(=O)O)c3cccnc3)cc2)n1`: the logP in series [1] is 5.23. In addition, the Kd on Thromboxane A2 receptor is 153 nM. Besides, the IC50 against Thromboxane-A synthase came to 31.2 nM.
Take `CCCCCNC(=O)[C@@H]1COC(c2ccc(/C(=C\CCCCC(=O)O)c3cccnc3)cc2)=N1`: the Kd at Thromboxane A2 receptor turned out to be 244 nM.
Same read-out and setting: with `O=C(O)CCCC/C=C(\c1cccnc1)c1cccc(C2=N[C@@H](C(=O)NCCCCC3CCCCC3)CO2)c1` the figure was 830 nM.
Turning to `O=C(O)CCCC/C=C(/c1ccc(C2=N[C@@H](C(=O)NCCCCC3CCCCC3)CO2)cc1)c1cccnc1`, at Thromboxane-A synthase, the IC50 is greater than 10000 nM.
`O=C(O)CCCC/C=C(\c1cccnc1)c1ccccc1-c1nc(C(=O)NCCCCC2CCCCC2)co1` displayed a Kd on Thromboxane A2 receptor of 1500 nM.
As to `O=C(O)CCCC/C=C(\c1cccnc1)c1cccc(-c2nc(C(=O)NCCCCC3CCCCC3)co2)c1`, on Thromboxane A2 receptor, the affinity, expressed as Kd, was 630 nM. On Thromboxane-A synthase, this compound returned an IC50 of 23 nM.
Compound `O=C(O)CCCC/C=C(/c1cccnc1)c1ccccc1-c1nc(C(=O)NCCCCC2CCCCC2)co1` had a Kd at Thromboxane A2 receptor of 540 nM.
`O=C(O)CCCC/C=C(\c1ccc(-c2nc(C(=O)NCCCCC3CCCCC3)co2)cc1)c1cccnc1` registered a logP in series [1] of 7.35. Further, it took 550 nM to reach half-maximal inhibition against Thromboxane-A synthase (IC50).
Turning to `O=C(O)CC/C=C(\c1ccc(-c2nc(C(=O)NCCCCC3CCCCC3)co2)cc1)c1cccnc1`, binding on Thromboxane A2 receptor was characterised by a dissociation constant (Kd) of 93.3 nM. The half-inhibitory concentration (IC50) on Thromboxane-A synthase was determined as 3170 nM.
Turning to `O=C(O)CCCC/C=C(/c1ccc(-c2nc(C(=O)NCCCCC3CCCCC3)co2)cc1)c1cccnc1`, at Thromboxane A2 receptor, binding was characterised by a dissociation constant (Kd) of 147 nM.
On to `O=C(O)CCCC/C=C(\c1ccc(C2=N[C@@H](C(=O)NCCCCC3CCCCC3)CO2)cc1)c1cccnc1`, for which the IC50 against Thromboxane-A synthase was found to be 82.1 nM.

Values taken from ChEMBL document CHEMBL1130899, “Development of dual-acting agents for thromboxane receptor antagonism and thromboxane synthase inhibition. 2. Design, synthesis, and evaluation of a novel series of phenyl oxazole derivatives” (Bioorg Med Chem Lett, 1998).
